Our source for the Kd values is ChEMBL document CHEMBL3991601, “The target landscape of clinical kinase drugs” (Science, 2017).

Assay [1] has as its target Casein kinase I isoform gamma-1 (Homo sapiens, UniProt Q9HCP0).
Assay [2] has as its target ATP-dependent RNA helicase DDX3X (Homo sapiens, UniProt O00571).
Assay [3] has as its target Mitogen-activated protein kinase kinase kinase kinase 1 (Homo sapiens, UniProt Q92918).
Assay [4] has as its target T1, NUAK family SNF1-like kinase 2 (Homo sapiens, UniProt Q9H093).
T1 sequence (Q9H093 whole entry): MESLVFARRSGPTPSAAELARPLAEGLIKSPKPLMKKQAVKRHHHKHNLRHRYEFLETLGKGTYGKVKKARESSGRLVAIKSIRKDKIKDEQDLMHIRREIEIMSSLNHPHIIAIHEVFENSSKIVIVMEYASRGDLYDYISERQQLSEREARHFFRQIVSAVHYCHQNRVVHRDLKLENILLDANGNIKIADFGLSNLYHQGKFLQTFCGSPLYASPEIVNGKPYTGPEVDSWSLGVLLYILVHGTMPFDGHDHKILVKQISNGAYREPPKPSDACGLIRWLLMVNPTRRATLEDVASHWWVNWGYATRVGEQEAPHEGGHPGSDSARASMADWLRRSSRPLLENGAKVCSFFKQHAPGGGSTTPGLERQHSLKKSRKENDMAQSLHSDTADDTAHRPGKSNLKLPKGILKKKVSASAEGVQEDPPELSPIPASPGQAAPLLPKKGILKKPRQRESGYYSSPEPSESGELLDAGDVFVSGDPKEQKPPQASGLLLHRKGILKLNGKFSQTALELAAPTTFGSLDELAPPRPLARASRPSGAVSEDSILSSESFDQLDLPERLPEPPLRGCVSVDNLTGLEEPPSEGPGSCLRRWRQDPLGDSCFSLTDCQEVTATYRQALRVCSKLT

For assay [5], the target named is T2, Phosphorylase b kinase gamma catalytic chain, liver/testis isoform (Homo sapiens, UniProt P15735).
T2 sequence (P15735 whole entry): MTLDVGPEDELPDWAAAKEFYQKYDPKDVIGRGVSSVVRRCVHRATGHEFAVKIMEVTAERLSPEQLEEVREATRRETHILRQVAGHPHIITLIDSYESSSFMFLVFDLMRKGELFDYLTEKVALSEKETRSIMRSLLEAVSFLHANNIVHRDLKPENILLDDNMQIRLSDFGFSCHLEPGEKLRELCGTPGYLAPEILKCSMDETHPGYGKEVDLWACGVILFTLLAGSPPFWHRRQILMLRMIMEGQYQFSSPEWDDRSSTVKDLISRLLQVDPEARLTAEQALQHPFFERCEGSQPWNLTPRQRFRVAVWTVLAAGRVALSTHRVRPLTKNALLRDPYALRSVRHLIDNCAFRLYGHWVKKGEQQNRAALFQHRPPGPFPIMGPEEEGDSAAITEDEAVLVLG

The target in assay [6] is Receptor-interacting serine/threonine-protein kinase 3 (Homo sapiens, UniProt Q9Y572).
Chain of Receptor-interacting serine/threonine-protein kinase 3 (Q9Y572 whole entry): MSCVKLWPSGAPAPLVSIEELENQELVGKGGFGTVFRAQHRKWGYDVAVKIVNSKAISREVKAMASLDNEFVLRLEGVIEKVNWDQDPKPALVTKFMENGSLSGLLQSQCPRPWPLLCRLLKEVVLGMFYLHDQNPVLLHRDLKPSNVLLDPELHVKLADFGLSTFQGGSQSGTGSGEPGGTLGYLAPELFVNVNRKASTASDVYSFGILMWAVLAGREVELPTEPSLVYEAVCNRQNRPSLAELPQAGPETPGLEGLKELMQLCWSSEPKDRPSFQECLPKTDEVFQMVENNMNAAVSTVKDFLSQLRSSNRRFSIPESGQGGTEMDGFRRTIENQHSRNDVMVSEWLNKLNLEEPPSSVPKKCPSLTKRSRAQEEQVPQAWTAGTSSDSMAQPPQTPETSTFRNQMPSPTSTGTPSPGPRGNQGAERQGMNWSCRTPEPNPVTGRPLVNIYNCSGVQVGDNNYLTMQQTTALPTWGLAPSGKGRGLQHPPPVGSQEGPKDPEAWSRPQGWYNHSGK
The target of assay [7] is T3, Non-receptor tyrosine-protein kinase TNK1 (Homo sapiens, UniProt Q13470).
T3 sequence (Q13470 whole entry): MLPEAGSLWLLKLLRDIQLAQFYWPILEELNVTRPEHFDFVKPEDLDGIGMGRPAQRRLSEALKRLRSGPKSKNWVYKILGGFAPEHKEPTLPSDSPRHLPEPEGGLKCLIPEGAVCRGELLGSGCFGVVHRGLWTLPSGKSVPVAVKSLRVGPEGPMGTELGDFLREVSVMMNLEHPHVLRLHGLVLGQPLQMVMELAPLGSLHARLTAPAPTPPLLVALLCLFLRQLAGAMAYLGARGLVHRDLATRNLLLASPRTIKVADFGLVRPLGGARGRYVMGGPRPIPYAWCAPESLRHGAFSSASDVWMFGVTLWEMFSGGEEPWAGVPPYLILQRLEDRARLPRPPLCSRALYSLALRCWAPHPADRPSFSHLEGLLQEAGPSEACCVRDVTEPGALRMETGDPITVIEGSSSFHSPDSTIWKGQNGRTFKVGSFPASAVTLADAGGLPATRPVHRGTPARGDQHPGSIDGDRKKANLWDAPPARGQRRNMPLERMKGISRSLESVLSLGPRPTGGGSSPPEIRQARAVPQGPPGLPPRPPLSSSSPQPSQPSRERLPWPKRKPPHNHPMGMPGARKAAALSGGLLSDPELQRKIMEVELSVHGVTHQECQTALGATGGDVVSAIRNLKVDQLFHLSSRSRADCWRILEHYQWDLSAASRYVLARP

The target in assay [8] is T4, General transcription and DNA repair factor IIH helicase subunit XPD (Homo sapiens, UniProt P18074).
T4 sequence (P18074 whole entry): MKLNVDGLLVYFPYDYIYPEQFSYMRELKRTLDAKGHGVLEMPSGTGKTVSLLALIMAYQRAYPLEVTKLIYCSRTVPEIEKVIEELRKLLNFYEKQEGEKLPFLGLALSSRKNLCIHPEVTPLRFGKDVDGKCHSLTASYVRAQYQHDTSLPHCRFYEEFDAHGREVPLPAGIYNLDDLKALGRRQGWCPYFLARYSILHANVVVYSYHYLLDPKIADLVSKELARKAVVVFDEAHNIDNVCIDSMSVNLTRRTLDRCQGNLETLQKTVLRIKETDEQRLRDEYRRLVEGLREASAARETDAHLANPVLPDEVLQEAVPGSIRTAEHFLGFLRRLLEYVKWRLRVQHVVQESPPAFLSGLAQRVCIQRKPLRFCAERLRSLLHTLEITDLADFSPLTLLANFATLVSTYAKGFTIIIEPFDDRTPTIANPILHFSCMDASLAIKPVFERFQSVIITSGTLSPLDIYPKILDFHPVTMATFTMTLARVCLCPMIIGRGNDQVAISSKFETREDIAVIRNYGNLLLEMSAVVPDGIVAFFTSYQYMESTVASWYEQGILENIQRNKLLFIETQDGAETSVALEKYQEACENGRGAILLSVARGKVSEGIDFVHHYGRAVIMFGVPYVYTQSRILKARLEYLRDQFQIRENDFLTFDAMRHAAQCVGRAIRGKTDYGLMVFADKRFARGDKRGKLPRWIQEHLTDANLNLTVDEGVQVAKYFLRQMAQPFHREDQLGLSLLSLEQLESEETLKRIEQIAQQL
The conditions noted are these: read-out: Kd apparent; k-562, colo 205, sk-n-be(2) and mv-4-11.

Active and inactive are the calls of the source. Cut-off read from the data, not from the text of the source, for most assays here: actives have a measured Kd and inactives only a lower limit. Bounds are passed on as bounds.
Note: in the data inactive means no Kd found up to 30 µM.

Chain of Casein kinase I isoform gamma-1 (Q9HCP0 whole entry, canonical isoform): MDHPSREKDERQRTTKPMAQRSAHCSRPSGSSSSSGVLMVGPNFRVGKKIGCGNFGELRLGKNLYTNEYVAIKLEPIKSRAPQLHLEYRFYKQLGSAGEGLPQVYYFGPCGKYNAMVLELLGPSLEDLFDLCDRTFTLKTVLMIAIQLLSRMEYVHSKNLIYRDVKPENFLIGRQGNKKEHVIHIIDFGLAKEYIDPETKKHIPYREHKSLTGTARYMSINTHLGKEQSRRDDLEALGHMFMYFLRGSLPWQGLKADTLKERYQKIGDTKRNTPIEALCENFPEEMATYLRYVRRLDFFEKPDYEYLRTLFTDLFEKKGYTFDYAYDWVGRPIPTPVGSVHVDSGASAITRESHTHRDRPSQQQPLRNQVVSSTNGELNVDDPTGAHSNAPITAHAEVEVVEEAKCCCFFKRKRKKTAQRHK
Chain of Mitogen-activated protein kinase kinase kinase kinase 1 (Q92918 whole entry): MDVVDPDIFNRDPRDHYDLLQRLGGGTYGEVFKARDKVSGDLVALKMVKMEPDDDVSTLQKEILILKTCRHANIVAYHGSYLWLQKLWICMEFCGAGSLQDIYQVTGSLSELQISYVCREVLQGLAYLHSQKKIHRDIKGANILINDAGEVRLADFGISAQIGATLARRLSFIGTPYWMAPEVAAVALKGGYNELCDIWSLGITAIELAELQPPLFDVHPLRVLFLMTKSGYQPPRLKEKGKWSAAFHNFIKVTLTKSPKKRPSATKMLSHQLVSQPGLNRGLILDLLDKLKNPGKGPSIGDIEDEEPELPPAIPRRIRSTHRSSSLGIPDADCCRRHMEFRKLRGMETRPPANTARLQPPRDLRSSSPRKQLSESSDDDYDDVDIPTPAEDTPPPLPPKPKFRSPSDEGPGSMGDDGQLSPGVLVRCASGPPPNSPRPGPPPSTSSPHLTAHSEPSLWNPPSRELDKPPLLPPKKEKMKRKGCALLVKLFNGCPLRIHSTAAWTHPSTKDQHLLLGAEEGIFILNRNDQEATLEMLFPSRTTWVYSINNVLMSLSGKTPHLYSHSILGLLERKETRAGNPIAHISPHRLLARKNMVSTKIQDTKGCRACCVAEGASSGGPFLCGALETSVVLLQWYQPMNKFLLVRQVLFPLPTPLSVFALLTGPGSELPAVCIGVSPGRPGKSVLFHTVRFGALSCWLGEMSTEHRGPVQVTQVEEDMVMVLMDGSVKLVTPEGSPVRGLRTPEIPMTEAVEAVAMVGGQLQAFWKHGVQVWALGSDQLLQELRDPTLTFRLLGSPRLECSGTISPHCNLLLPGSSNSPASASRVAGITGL
Chain of ATP-dependent RNA helicase DDX3X (O00571 whole entry): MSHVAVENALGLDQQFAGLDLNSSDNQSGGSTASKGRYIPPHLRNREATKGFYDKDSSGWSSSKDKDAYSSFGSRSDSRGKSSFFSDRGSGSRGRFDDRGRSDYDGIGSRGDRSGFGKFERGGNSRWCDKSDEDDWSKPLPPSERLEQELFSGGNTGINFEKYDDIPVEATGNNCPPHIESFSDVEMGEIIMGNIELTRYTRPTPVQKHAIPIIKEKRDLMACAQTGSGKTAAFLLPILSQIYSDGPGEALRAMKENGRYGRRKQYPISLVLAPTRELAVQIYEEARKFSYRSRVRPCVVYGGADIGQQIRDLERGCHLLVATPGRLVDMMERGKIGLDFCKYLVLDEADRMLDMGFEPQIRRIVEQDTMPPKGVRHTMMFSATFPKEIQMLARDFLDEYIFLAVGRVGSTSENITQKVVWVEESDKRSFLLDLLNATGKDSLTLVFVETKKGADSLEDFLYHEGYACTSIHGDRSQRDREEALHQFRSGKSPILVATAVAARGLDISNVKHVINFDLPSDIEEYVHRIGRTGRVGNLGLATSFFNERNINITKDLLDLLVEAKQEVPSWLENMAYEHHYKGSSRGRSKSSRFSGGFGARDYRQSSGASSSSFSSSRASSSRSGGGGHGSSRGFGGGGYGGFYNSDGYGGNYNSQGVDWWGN

For the molecule `CCS(=O)(=O)N1CC(CC#N)(n2cc(-c3ncnc4[nH]ccc34)cn2)C1` [BARICITINIB], the Kd was 1.75 µM in assay [1]; > 30 µM (inactive) in assay [2]; > 30 µM (inactive) in assay [3]; > 30 µM (inactive) in assay [4]; > 30 µM (inactive) in assay [5]; > 30 µM (inactive) in assay [6]. Moreover, the Kd in assay [7] is 0.622 µM; in assay [8], > 30 µM (inactive).

Take `COc1ccc(-c2ccc3c(N4CCOC[C@@H]4C)nc(N4CCOC[C@@H]4C)nc3n2)cc1CO` [AZD-8055]: the Kd in assay [1], in assay [2], in assay [3], in assay [4], in assay [5] and in assay [6] was > 30 µM (inactive) throughout. Also, the Kd in assay [7] and in assay [8] was > 30 µM (inactive) each time.

As for `O=C(O)[C@]1(Cc2cccc(Nc3nccs3)n2)CC[C@@H](Oc2cccc(Cl)c2F)CC1` [MK-5108], the Kd in assay [1], in assay [2], in assay [3], in assay [4], in assay [5] and in assay [6] was > 30 µM (inactive) throughout. In addition, the results for the Kd in assay [7] and in assay [8] were 0.006 µM (active) and > 30 µM (inactive), respectively.

As for `O=C1NC(=O)/C(=C/c2ccc3nccc(-c4ccncc4)c3c2)S1` [GSK-1059615], the Kd was 17.5 µM (active) in assay [1]; > 30 µM (inactive) in assay [2]; > 30 µM (inactive) in assay [3]; > 30 µM (inactive) in assay [4]; > 30 µM (inactive) in assay [5]; > 30 µM (inactive) in assay [6]. The Kd in assay [7] and in assay [8] was > 30 µM (inactive) each time.

For `C[C@@H](Nc1cc(F)cc(F)c1)c1cc(C(=O)N(C)C)cc2c(=O)cc(N3CCOCC3)oc12` [AZD-8186], the Kd in assay [1], in assay [2], in assay [3], in assay [4], in assay [5] and in assay [6] was > 30 µM (inactive) each time. Also, the Kd in assay [7] and in assay [8] was > 30 µM (inactive) in each case.

Regarding `Cc1c(F)cc(C(=O)NC2CC2)cc1-c1ccc(C(=O)NCC(C)(C)C)cn1` [LOSMAPIMOD], the Kd in assay [1], in assay [2], in assay [3], in assay [4], in assay [5] and in assay [6] was > 30 µM (inactive) in each case. In addition, the Kd in assay [7] and in assay [8] was > 30 µM (inactive) in each case.

For `COc1cc(CCc2cc(NC(=O)c3ccc(N4C[C@@H](C)N[C@@H](C)C4)cc3)n[nH]2)cc(OC)c1` [AZD-4547], the Kd is > 30 µM (inactive) in assay [1]; > 30 µM (inactive) in assay [2]; 0.354 µM (active) in assay [3]; > 30 µM (inactive) in assay [4]; > 30 µM (inactive) in assay [5]; > 30 µM (inactive) in assay [6]. Also, the Kd in assay [7] and in assay [8] was > 30 µM (inactive) each time.

Turning to `C=CC(=O)N1CCC(Oc2cc3c(Nc4ccc(Cl)c(Cl)c4F)ncnc3cc2OC)CC1` [POZIOTINIB], the Kd in assay [1] is > 30 µM (inactive); in assay [2], > 30 µM (inactive); in assay [3], > 30 µM (inactive); in assay [4], > 30 µM (inactive); in assay [5] it was > 30 µM (inactive); in assay [6] it was 0.392 µM (active). Besides, the Kd in assay [7] is 1.68 µM (active); in assay [8] it was > 30 µM (inactive).

Take `Cc1cc2c(F)c(Oc3ncnn4cc(OC[C@@H](C)OC(=O)[C@H](C)N)c(C)c34)ccc2[nH]1` [BRIVANIB ALANINATE]: the Kd in assay [1] was > 30 µM (inactive); in assay [2], > 30 µM (inactive); in assay [3], > 30 µM (inactive); in assay [4] it was 0.003 µM; in assay [5], > 30 µM (inactive); in assay [6] it was > 30 µM (inactive). In addition, the Kd in assay [7] and in assay [8] was > 30 µM (inactive) each time.

As for `C1=C/COCc2cc(ccc2OCCN2CCCC2)Nc2nccc(n2)-c2cccc(c2)COC/1` [PACRITINIB], the Kd in assay [1] was > 30 µM (inactive); in assay [2], > 30 µM (inactive); in assay [3], 0.16 µM; in assay [4], > 30 µM (inactive); in assay [5], > 30 µM (inactive); in assay [6] it was > 30 µM (inactive). Also, the Kd in assay [7] is 0.888 µM (active); in assay [8], > 30 µM (inactive).

Regarding `C[C@@H]1CN(Cc2ccc(F)cc2)[C@@H](C)CN1C(=O)c1cc2c(C(=O)C(=O)N(C)C)cn(C)c2cc1Cl` [TALMAPIMOD], the Kd in assay [1], in assay [2], in assay [3], in assay [4], in assay [5] and in assay [6] was > 30 µM (inactive) each time. Also, the Kd in assay [7] and in assay [8] was > 30 µM (inactive) throughout.

Turning to `CN1CCC(COc2cnc(-c3cccc(Cn4nc(-c5cccc(C#N)c5)ccc4=O)c3)nc2)CC1` [TEPOTINIB], the Kd in assay [1], in assay [2], in assay [3], in assay [4], in assay [5] and in assay [6] was > 30 µM (inactive) throughout. Besides, the Kd in assay [7] and in assay [8] was > 30 µM (inactive) throughout.

As to `COc1cc2nccc(Oc3ccc(NC(=O)NC4CC4)c(Cl)c3)c2cc1C(N)=O` [LENVATINIB], the Kd was > 30 µM (inactive) in assay [1]; > 30 µM (inactive) in assay [2]; > 30 µM (inactive) in assay [3]; > 30 µM (inactive) in assay [4]; > 30 µM (inactive) in assay [5]; 0.316 µM (active) in assay [6]. In addition, the Kd in assay [7] and in assay [8] was > 30 µM (inactive) in each case.
